Assays:
eIF1 = molecular target: T1, eIF1 (Homo sapiens, UniProt P41567); assay: Intrinsic fluorescence of His-eIF1; type: binding; details: 0-256 μM, 5 minutes
T1 construct: made in house; host or cells: E. coli BL21
From the text: FIGS. 1A-G: Identification and initial characterization of eIF1-eIF4G1 inhibitors using a high-throughput drug screen (HTS). (1A) A flowchart describing the steps of the recombinant eIF1-eIF4G1 split-RL HTS. (1B) Selection of drugs that inhibit leaky scanning. HEK293T cells were transfected with a short 5′UTR bearing GFP reporter gene described on the top, treated with the indicated HTS hits, and then analyzed by western blot with GFP antibody. US and DS denote upstream and downstream AUG initiation sites, respectively. (1C) A graph showing the change in the ratio of the upstream and downstream AUG following treatment with the indicated drugs. (1D) The chemical structure of the eIF1-eIF4G1 inhibitors, i14G1-10 and i14G1-12. (1E) His-tagged eIF4G1 and His-tagged eIF1 were expressed in BL21 bacteria and purified using nickel NTA beads. Purified His-tagged eIF4G1 and His-tagged eIF1 were incubated with the indicated doses of either i14G1-10 (0-256 μM) or i14G1-12 (0-256 μM) for 5 minutes, followed by fluorescence measurement. […] IC50 was calculated using Graphpad prism 9. […]
Intrinsic fluorescence of His-eIF1 and His-eIF4G1. […] After 5 minutes, fluorescence (280/350) was measured on Cytation 5 multi-mode reader (Biotek). The fluorescence intensity values corresponding to respective concentration in both i14G1-10 and i14G1-12 treatments were plotted and IC50 was calculated using GraphPad Prism 9.0. […]

[1] = Analysis of uptake (intracellular levels) by LC-MS; type: in vitro ADME; details: for concentration by LC-MS, Media: Media (amount applied)
Method: To determine the intracellular levels of i14G1-10 and i14G1-12, cells treated with these drugs for 3 h were extensively washed and then analyzed by LC-MS. Both compounds were detected within the cells, but the amount of i14G1-12 was substantially lower than the amount that was applied (Table 4).

[2] = cells treated 3 h, extensively washed

T1 sequence (P41567 whole entry): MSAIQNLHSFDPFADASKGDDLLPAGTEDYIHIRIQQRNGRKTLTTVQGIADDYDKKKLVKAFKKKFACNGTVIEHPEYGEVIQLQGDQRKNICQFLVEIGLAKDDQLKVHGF

| SMILES | IC50 (eIF1; excitation 274 nm, emission 304 nm, read-out: IC-50, decrease of eIF1 intrinsic fluorescence) | concentration by LC-MS, Media [1] | concentration by LC-MS, i14G1-10 treated cells [1, 2] | intrinsic fluorescence of eIF1 (eIF1) | concentration by LC-MS, i14G1-12 treated cells [1, 2] |
| --- | --- | --- | --- | --- | --- |
| Cn1ccnc1S/C(=C/C=C(C#N)C#N)c1ccc(Cl)cc1 [i14G1-12] | 54 µM | 3300 ng/mL | Not detected | – | – |
| O=C(/C=C/Sc1ccc(C(F)(F)F)cn1)c1ccccc1 [i14G1-10] | – | 6200 ng/mL | 1130 ± 40 ng/mL | almost unchanged | Not detected |

— patent US20250090510A1, “eIF4G1-eIF1 INHIBITORS AND USE THEREOF” (YEDA RESEARCH AND DEVELOPMENT CO. LTD., priority 2022, published 2025)
